{"source": "patent US11986471B2", "about": "“Compounds and methods of use” (Tango Therapeutics, Inc., priority 2018, dated 2024)", "key": {"PRMT5 [1]": {"molecular_target": "T1, PRMT5 (Homo sapiens, UniProt O14744)", "T1 construct": "purchased Viva (custom protein)", "T1 sequence (O14744 whole entry)": "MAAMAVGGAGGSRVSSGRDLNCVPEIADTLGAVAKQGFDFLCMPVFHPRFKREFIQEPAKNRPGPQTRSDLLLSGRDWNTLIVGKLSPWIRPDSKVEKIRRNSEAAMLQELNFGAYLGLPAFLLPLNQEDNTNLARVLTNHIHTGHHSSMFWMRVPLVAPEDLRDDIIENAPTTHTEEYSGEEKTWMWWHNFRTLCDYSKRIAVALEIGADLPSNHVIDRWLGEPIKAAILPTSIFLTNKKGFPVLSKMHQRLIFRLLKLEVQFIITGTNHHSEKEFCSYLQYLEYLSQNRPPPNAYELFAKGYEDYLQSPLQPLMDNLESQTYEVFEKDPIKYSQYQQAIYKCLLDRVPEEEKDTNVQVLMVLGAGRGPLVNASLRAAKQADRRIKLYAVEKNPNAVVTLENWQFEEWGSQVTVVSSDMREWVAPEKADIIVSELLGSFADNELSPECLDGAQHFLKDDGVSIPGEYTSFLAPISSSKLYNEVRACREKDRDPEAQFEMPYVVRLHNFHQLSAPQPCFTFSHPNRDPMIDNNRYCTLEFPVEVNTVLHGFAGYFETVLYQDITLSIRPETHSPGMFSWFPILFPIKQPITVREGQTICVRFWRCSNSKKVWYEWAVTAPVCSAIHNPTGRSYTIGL", "T1 sequence (Q9BQA1 whole entry partner)": "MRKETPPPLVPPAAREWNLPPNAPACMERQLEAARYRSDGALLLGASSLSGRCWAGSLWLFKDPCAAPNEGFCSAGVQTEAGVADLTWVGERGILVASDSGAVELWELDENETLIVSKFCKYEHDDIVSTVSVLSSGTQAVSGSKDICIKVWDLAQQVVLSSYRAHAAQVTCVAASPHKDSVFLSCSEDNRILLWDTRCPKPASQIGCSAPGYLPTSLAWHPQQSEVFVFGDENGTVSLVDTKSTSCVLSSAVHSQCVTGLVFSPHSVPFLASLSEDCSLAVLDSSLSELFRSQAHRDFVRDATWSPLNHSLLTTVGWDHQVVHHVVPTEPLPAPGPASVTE", "assay": "PRMT5 IC50 assay in the presence of SAM as cofactor", "assay_type": "biochemical", "how_it_was_run": "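For the SAM-containing format, dividing IC50 by 1.5 yields Ki; for the MTA-containing format the divisor is 13.5. A third format without cofactor gives IC50 alone.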"}, "PRMT5 [2]": {"molecular_target": "T1, PRMT5", "assay": "PRMT5 IC50 assay with no cofactor", "assay_type": "biochemical", "how_it_was_run": "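Enzyme: human PRMT5. Conditions: plus SAM, plus MTA, or cofactor-free. Output: IC50 (μM); Ki via IC50/1.5 (SAM) or IC50/13.5 (MTA).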"}, "PRMT5 [3]": {"molecular_target": "T1, PRMT5", "assay": "PRMT5 IC50 assay in the presence of MTA as cofactor", "assay_type": "biochemical", "conditions": "for IC50: PRMT5, MTA as cofactor", "how_it_was_run": "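IC50 against PRMT5 determined with SAM as cofactor, with no cofactor, and with MTA as cofactor. Ki derived as IC50/1.5 for the SAM assay and IC50/13.5 for the MTA assay; SAM Ki to MTA Ki ratio also reported.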"}, "HAP1 MTAP-intact": {"system": "HAP1 MTAP-intact", "assay": "SDMA in-cell western assay, HAP1 MTAP-intact cell line", "assay_type": "cell-based", "conditions": "Homo sapiens", "how_it_was_run": "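Symmetric dimethylarginine (SDMA) levels were measured by in-cell western in an isogenic HAP1 pair, one expressing endogenous MTAP and one MTAP-null, and IC50 values were derived for each line. Compounds whose IC50 ratio between the lines is 3-fold or more are classed as MTAP-selective.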"}, "HAP1 MTAP-deleted": {"system": "HAP1 MTAP-deleted", "assay": "SDMA in-cell western assay, HAP1 MTAP-deleted cell line", "assay_type": "cell-based", "conditions": "for IC50: Homo sapiens, HAP1 MTAP-deleted cell line; for MTAP Intact/Deleted Ratio: IC50 ratio HAP1 MTAP-intact / HAP1 MTAP-deleted", "how_it_was_run": "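Symmetric dimethylarginine (SDMA) levels were measured by in-cell western in MTAP-null HAP1 cells, one half of an MTAP-isogenic pair whose partner line expresses endogenous MTAP. Compound potency is reported as IC50.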"}, "[4]": {"conditions": "ratio between Ki in the presence of SAM and Ki in the presence of MTA"}}}
{"smiles": "CCC(=O)N1CCN(c2cc(C(=O)NC[C@H](O)CN3CCc4cc(OCc5ocnc5C)ccc4C3)cc(NC3CCC3)n2)CC1", "note": "[Compound 389, 2-(cyclobutylamino)-N-[(2S)-2-hydroxy-3-{6-[(4-methyl-1,3-oxazol-5-yl)methoxy]-1,2,3,4-tetrahydroisoquinolin-2-yl}propyl]-6-(4-propanoylpiperazin-1-yl)pyridine-4-carboxamide]", "values": [{"measurement": "IC50", "setting": "PRMT5 [1]", "result": "50 to 500", "unit": "nM"}, {"measurement": "IC50", "setting": "PRMT5 [2]; read-out: No Co-factor IC50", "result": "500 to 5000", "unit": "nM"}, {"measurement": "IC50", "setting": "PRMT5 [3]", "result": "50 to 500", "unit": "nM"}, {"measurement": "SAM/MTA Ratio", "setting": "PRMT5 [3]; [4]", "result": "A (a Ki ratio greater than or equal to 10 fold between the Ki in the presence of SAM and the Ki in the presence of MTA)"}, {"measurement": "IC50", "setting": "HAP1 MTAP-intact", "result": "< 1000", "unit": "nM"}, {"measurement": "IC50", "setting": "HAP1 MTAP-deleted", "result": "< 1000", "unit": "nM"}, {"measurement": "MTAP Intact/Deleted Ratio", "setting": "HAP1 MTAP-deleted", "result": "B* (an IC50 ratio greater than or equal to 3 fold but lower than 10 fold between the IC50 in the HAP1 MTAP-intact cell line and the HAP1 MTAP-deleted cell line)"}]}
{"smiles": "Cc1ncoc1COc1ccc2c(c1)CCN(C[C@@H](O)CNC(=O)c1cc(NC3CCC3)nc(NC3CCC3)c1)C2", "note": "[Compound 636, (S)-2,6-bis(cyclobutylamino)-N-(2-hydroxy-3-(6-((4-methyloxazol-5-yl)methoxy)-3N-dihydroisoquinolin-2(1H)-yl)propyl)isonicotinamide]", "values": [{"measurement": "IC50", "setting": "PRMT5 [1]", "result": "50 to 500", "unit": "nM"}, {"measurement": "IC50", "setting": "PRMT5 [2]; read-out: No Co-factor IC50", "result": "500 to 5000", "unit": "nM"}, {"measurement": "IC50", "setting": "PRMT5 [3]", "result": "50 to 500", "unit": "nM"}, {"measurement": "SAM/MTA Ratio", "setting": "PRMT5 [3]; [4]", "result": "A (a Ki ratio greater than or equal to 10 fold between the Ki in the presence of SAM and the Ki in the presence of MTA)"}, {"measurement": "IC50", "setting": "HAP1 MTAP-intact", "result": "1000 to 10000", "unit": "nM"}, {"measurement": "IC50", "setting": "HAP1 MTAP-deleted", "result": "< 1000", "unit": "nM"}, {"measurement": "MTAP Intact/Deleted Ratio", "setting": "HAP1 MTAP-deleted", "result": "B* (an IC50 ratio greater than or equal to 3 fold but lower than 10 fold between the IC50 in the HAP1 MTAP-intact cell line and the HAP1 MTAP-deleted cell line)"}]}
{"smiles": "CC(=O)N1CCC(Nc2cc(C(=O)NC[C@H](O)CN3CCc4cc(OCc5ocnc5C)ccc4C3)ncn2)CC1", "note": "[Compound 219, (S)-6-((1-acetylpiperidin-4-yl)amino)-N-(2-hydroxy-3-(6-((4-methyloxazol-5-yl)methoxy)-3,4-dihydroisoquinolin-2(1H)-yl)propyl)pyrimidine-4-carboxamide]", "values": [{"measurement": "IC50", "setting": "PRMT5 [1]", "result": "50 to 500", "unit": "nM"}, {"measurement": "IC50", "setting": "PRMT5 [2]; read-out: No Co-factor IC50", "result": "≥ 5000", "unit": "nM"}, {"measurement": "IC50", "setting": "PRMT5 [3]", "result": "50 to 500", "unit": "nM"}, {"measurement": "SAM/MTA Ratio", "setting": "PRMT5 [3]; [4]", "result": "A (a Ki ratio greater than or equal to 10 fold between the Ki in the presence of SAM and the Ki in the presence of MTA)"}, {"measurement": "IC50", "setting": "HAP1 MTAP-intact", "result": "1000 to 10000", "unit": "nM"}, {"measurement": "IC50", "setting": "HAP1 MTAP-deleted", "result": "< 1000", "unit": "nM"}, {"measurement": "MTAP Intact/Deleted Ratio", "setting": "HAP1 MTAP-deleted", "result": "B* (an IC50 ratio greater than or equal to 3 fold but lower than 10 fold between the IC50 in the HAP1 MTAP-intact cell line and the HAP1 MTAP-deleted cell line)"}]}
{"smiles": "COCCN(C)c1cc(C(=O)NC[C@H](O)CN2CCc3cc(OCc4cnco4)ccc3C2)cc(NC2CCC2)n1", "note": "[Compound 369, (S)-2-(cyclobutylamino)-N-(2-hydroxy-3-(6-(oxazol-5-ylmethoxy)-3,4-dihydroisoquinolin-2(1H)-yl)propyl)-6-((2-methoxyethyl)(methyl)amino)isonicotinamide]", "values": [{"measurement": "IC50", "setting": "PRMT5 [1]", "result": "500 to 5000", "unit": "nM"}, {"measurement": "IC50", "setting": "PRMT5 [2]; read-out: No Co-factor IC50", "result": "500 to 5000", "unit": "nM"}, {"measurement": "IC50", "setting": "PRMT5 [3]", "result": "50 to 500", "unit": "nM"}, {"measurement": "SAM/MTA Ratio", "setting": "PRMT5 [3]; [4]", "result": "A (a Ki ratio greater than or equal to 10 fold between the Ki in the presence of SAM and the Ki in the presence of MTA)"}, {"measurement": "IC50", "setting": "HAP1 MTAP-intact", "result": "1000 to 10000", "unit": "nM"}, {"measurement": "IC50", "setting": "HAP1 MTAP-deleted", "result": "≥ 10000", "unit": "nM"}, {"measurement": "MTAP Intact/Deleted Ratio", "setting": "HAP1 MTAP-deleted", "result": "C* (an IC50 ratio of less than 3 fold between the IC50 in the HAP1 MTAP-intact cell line and the HAP1 MTAP-deleted cell line)"}]}
{"smiles": "CC(=O)N1CCN(c2cc(C(=O)NC[C@H](O)CN3CCc4c(ccc(OCc5cnco5)c4Cl)C3)cc(NC3CCC3)n2)CC1", "note": "[Compound 545, (S)-2-(4-acetylpiperazin-1-yl)-N-(3-(5-chloro-6-(oxazol-5-ylmethoxy)-3,4-dihydroisoquinolin-2(1H)-yl)-2-hydroxypropyl)-6-(cyclobutylamino)isonicotinamide]", "values": [{"measurement": "IC50", "setting": "PRMT5 [1]", "result": "50 to 500", "unit": "nM"}, {"measurement": "IC50", "setting": "PRMT5 [2]", "result": "500 to 5000", "unit": "nM"}, {"measurement": "IC50", "setting": "PRMT5 [3]", "result": "50 to 500", "unit": "nM"}, {"measurement": "SAM/MTA Ratio", "setting": "PRMT5 [3]; ratio between the Ki in the presence of SAM and the Ki in the presence of MTA", "result": "A (a Ki ratio greater than or equal to 10 fold between the Ki in the presence of SAM and the Ki in the presence of MTA)"}, {"measurement": "IC50", "setting": "HAP1 MTAP-intact", "result": "≥ 10000", "unit": "nM"}, {"measurement": "IC50", "setting": "HAP1 MTAP-deleted", "result": "1000 to 10000", "unit": "nM"}, {"measurement": "MTAP Intact/Deleted Ratio", "setting": "HAP1 MTAP-deleted", "result": "B* (an IC50 ratio greater than or equal to 3 fold but lower than 10 fold between the IC50 in the HAP1 MTAP-intact cell line and the HAP1 MTAP-deleted cell line)"}]}
